This assay concerns the target Protein kinase C alpha type (Homo sapiens) (UniProt P17252). Put plainly: Effect on diacylglycerol induced (DAG) PKC activation at 1-10 uM. The assay is classed as functional.

`O=C(O)CCCCCCC/C=C/CCCCCCCCOc1cc(C2(C(F)(F)F)N=N2)ccc1I`: the Activity came to 40%.

The values are drawn from ChEMBL document CHEMBL1145770, “Efficient synthesis of 3-trifluoromethylphenyldiazirinyl oleic acid derivatives and their biological activity for protein kinase C” (Bioorg Med Chem Lett, 2003).
